Values joined by “and” are separate entries in the source; they are usually repeats but may differ in a detail not shown here. Identical values can stand only once.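 Method: 48-hour compound exposure of cells in 96-well plates, five concentrations, linear interpolation of endpoints. Abbreviation: GI50, concentration required for 50% inhibition of growth. Definition used: TGI = concentration required for complete inhibition of growth.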 A value given as a limit tells only on which side of the number the result lay.

Test in all cases: DTP human tumour cell line panel, 48 h
The test system of test [1] is SW-620 colon.
The subject of test [2] is LOX IMVI melanoma.
For test [3], the system named is IGROV1 ovarian.
In test [4] the test system is HCT-15 colon.
The subject of test [5] is HOP-92 NSCLC.
Test [6] concerns OVCAR-5 ovarian.
Test [7] concerns MOLT-4 leukemia.
In test [8] the test system is SNB-75 CNS.
In test [9] the test system is TK-10 renal.
Test [10] concerns OVCAR-4 ovarian.
Test [11] has as its system K-562 leukemia.
Test [12] relates to T-47D breast.
The test system of test [13] is HL-60(TB) leukemia.
Test [14] deals with NCI-H226 lung.

Usually TGI stands for the concentration giving total growth inhibition. Turning to `CC(=O)NC(CCC(=O)C=[N+]=N)C(=O)O` (stereo not given), the TGI in [1], in test [2], in [3], in [4], in [5] and in test [6] was above 100 µM throughout. The TGI in test [7], in test [8], in test [9], in [10], in [11] and in test [12] was above 100 µM in each case. Moreover, the total growth inhibition concentration (TGI) in [13] and in test [14] was above 100 µM in each case.
With `CC1(C)Cc2c(C#N)c(N)c3c(c2CO1)C(=O)OC3=O`, the TGI in test [1], in test [2], in test [3], in test [4], in test [6] and in test [7] was above 100 µM throughout. Also, the TGI in test [9], in test [10], in test [11], in test [13] and in test [14] was above 100 µM in each case.
One may read the GI50 as the concentration giving 50% growth inhibition. `CC1CCC2(C(=O)O)CCC3(C)C(=CCC4C5(C)CCC(O)C(C)(C)C5CCC43C)C2C1C` (stereo not given): the GI50 in test [1] was 5.07 µM and 46.9 µM; in test [4], 5.53 µM and 13.3 µM; in test [7], 3.66 µM and 12.1 µM; in test [8], 1.52 µM and 13.3 µM. Besides, the TGI is 16.9 µM and > 100 µM in test [1]; 17.2 µM and > 100 µM in test [2]; 26.9 µM and 33.2 µM in test [3]; 15.4 µM and 26.6 µM in test [4]; 21.1 µM and 42.6 µM in [5]; 19.6 µM and 23.2 µM in test [6]. Moreover, the TGI in test [7] was 16.7 µM and 37.2 µM; in test [8], 16.5 µM and 30.4 µM; in test [9], 43.9 µM; in [10] it was 24.2 µM and 31.9 µM; in test [11], 15.6 µM; in [12] it was 29.3 µM. For the same compound, the TGI in test [13] was 19 µM and 6.49 µM; in test [14], 18.7 µM and 37.7 µM.
Consider `C/C=C/C1=CC(=O)C(O)C1O` (stereo not given), for which the TGI in test [1] was 99.3 µM; in test [2] it was 83 µM; in test [3], 141 µM; in [4], 97.2 µM; in test [5] it was 66 µM; in test [6] it was 130 µM. In addition, the TGI in test [7] was 109 µM; in [8], 67.5 µM; in test [10], 111 µM; in test [11] it was 179 µM; in [13], 57.5 µM; in test [14] it was 62.5 µM.
`C1=C(c2ccccc2)Nc2nnnn2C1c1ccccc1` (stereo not given): the TGI was 55.9 µM in test [1]; 38.3 µM in [2]; above 100 µM in test [3]; 37.7 µM in [4]; above 100 µM in [6]; 60.3 µM in [7]. For the same compound, the TGI in test [9] was 73.9 µM; in test [11] it was above 100 µM; in test [12], above 100 µM; in [13], 64.4 µM; in test [14], above 100 µM.
`CCOC(=O)c1c(Cl)nc2ccccc2c1N=[N+]=[N-]`: the TGI stood at 35.1 µM in [1]; 39.3 µM in [2]; 46.9 µM in test [3]; 34.6 µM in test [4]; 59.5 µM in test [5]; 41.1 µM in test [6]. Further, the TGI in test [7] is above 100 µM; in [9], 99.8 µM; in [10], 31.7 µM; in test [11] it was above 100 µM; in [12] it was 45.7 µM; in test [13], above 100 µM. Also, the TGI in test [14] is above 100 µM.
For the compound `Cc1[nH]nc(N)c1C(N)=O`, the TGI in test [1], in [2], in [3], in test [4], in test [6] and in [7] was above 100 µM throughout. In addition, the TGI in test [8], in test [9], in [10], in test [11] and in test [13] was above 100 µM in each case.
Consider `CC1CC[C@@]2(OC1)OC1CC3C4CCC5C[C@@H](OC6OC(CO)C(OC7OC(CO)C(O)C(OC8OC(CO)C(O)C(OC9OC(CO)C(O)C(O)C9O)C8O)C7OC7OC(CO)C(O)C(O)C7O)C(O)C6O)[C@H](O)C[C@]5(C)C4CC[C@]3(C)C1[C@@H]2C` (stereo not given in full), for which the TGI in test [1], in test [2], in [4], in test [5], in test [6] and in test [8] was above 80.5 µM each time. The TGI in [9], in [10], in test [11], in test [12], in [13] and in test [14] was above 80.5 µM each time.
Take `CCCC(=O)NC1CCc2cc(OC)c(OC)c(OC)c2-c2ccc(OC)c(=O)cc21` (stereo not given): the TGI was above 100 µM in test [1]; above 100 µM in test [2]; above 100 µM in test [3]; 25.5 µM in [4]; above 100 µM in test [8]; above 100 µM in test [9]. Further, the values for the TGI in test [11] and in test [13] were above 100 µM and 0.158 µM, respectively. Further, the GI50 in test [4] was 0.011 µM.
Take `COC(=O)c1c(O)ccc2c1c1c(n2Cc2ccc(Cl)cc2Cl)C(=O)c2ccccc2C1=O`: the TGI in [1] was found to be 32.4 µM; in test [2], 33.3 µM; in [3] it was 26.9 µM; in test [4], 18.5 µM; in [5] it was 25.1 µM; in test [6] it was 42.9 µM. Further, the TGI in test [7] turned out to be 7.17 µM; in test [8] it was 32.3 µM; in test [9], 29 µM; in test [10] it was 11.6 µM; in [11], 22.5 µM; in test [12] it was 13.7 µM. For the same compound, the TGI in test [13] was 34.2 µM; in test [14], 24.8 µM.

The values are drawn from PubChem BioAssay (NCI).
